pIC50: −log10 of the molar value. In brackets after ≈: the same amount, converted by molar mass. Activity calls are given as the source filed them. The rule behind the calls is not given here.
Key:
U-87 MG [1] = experiment: Antiproliferative activity against human U87 cells assessed as inhibition of cell growth incubated for 24 hrs by CCK-8 assay; format: functional, cell-based, U-87MG ATCC
MCF7 = experiment: Antiproliferative activity against human MCF7 cells assessed as inhibition of cell growth incubated for 24 hrs by CCK-8 assay; format: functional, cell-based; conditions: MCF7, 24 h
HCT-116 = experiment: Antiproliferative activity against human HCT-116 cells assessed as inhibition of cell growth incubated for 24 hrs by CCK-8 assay; format: functional, cell-based; conditions: HCT-116, 24 h
KYSE-150 cell line = experiment: Antiproliferative activity against human KYSE-150 cell line assessed as inhibition of cell growth incubated for 24 hrs by CCK-8 assay; format: functional, cell-based; conditions: KYSE-150, 24 h
[2] = Kinetic solubility in PBS at pH 7.4 incubated under shaking condition for 24 hrs by LC-MS/MS analysis; format: physicochemical; conditions: read-out: Kinetic_solubility
[3] = Apparent permeability across apical to basolateral side in human Caco-2 cells at 2 uM incubated for 2 hrs by LC-MS/MS analysis; format: ADME, cell-based; conditions: Caco-2
[4] = Apparent permeability across basolateral to apical side in human Caco-2 cells at 2 uM incubated for 2 hrs by LC-MS/MS analysis; format: ADME, cell-based; conditions: Caco-2
[5] = Efflux ratio of apparent permeability from basolateral to apical side over apical to basolateral side in human Caco-2 cells at 2 uM incubated for 2 hr by LC-MS/MS analysis; format: ADME, cell-based; conditions: Caco-2
[6] = Metabolic stability in liver microsomes (unknown origin) assessed as half life incubated for 60 mins by LC-MS/MS analysis; format: ADME, Microsome
[7] = Metabolic stability in liver microsomes (unknown origin) assessed as compound remaining incubated for 60 mins by LC-MS/MS analysis; format: ADME, Microsome; conditions: read-out: Stability
U-87 MG [8] = experiment: Induction of apoptosis in human U87 cells at 80 uM incubated for 24 hrs by Annexin V-FITC/PI staining based flow cytometry; format: functional, U-87MG ATCC
U-87 MG [9] = experiment: Induction of apoptosis in human U87 cells assessed as increase in number of apoptotic cells at 80 uM incubated for 24 hrs by Annexin V-FITC/PI staining based flow cytometry; format: functional, cell-based; conditions: U-87MG ATCC
U-87 MG [10] = experiment: Induction of apoptosis in human U87 cells assessed as increase in number of early apoptotic cells at 80 uM incubated for 24 hrs by Annexin V-FITC/PI staining based flow cytometry; format: functional, cell-based; conditions: U-87MG ATCC
U-87 MG [11] = experiment: Induction of apoptosis in human U87 cells assessed as increase in number of late apoptotic cells at 80 uM incubated for 24 hrs by Annexin V-FITC/PI staining based flow cytometry; format: functional, cell-based; conditions: U-87MG ATCC
U-87 MG [12] = experiment: Induction of apoptosis in human U87 cells assessed as increase in number of necrotic cells at 80 uM incubated for 24 hrs by Annexin V-FITC/PI staining based flow cytometry; format: functional, cell-based; conditions: U-87MG ATCC
U-87 MG [13] = experiment: Induction of cell cycle arrest in human U87 cells assessed as decrease in number of cells at G1 phase at 80 uM incubated for 24 hrs by RNase/PI staining based flow cytometry; format: functional; conditions: U-87MG ATCC
U-87 MG [14] = experiment: Induction of cell cycle arrest in human U87 cells assessed as decrease in number of cells at G2 phase at 80 uM incubated for 24 hrs by RNase/PI staining based flow cytometry; format: functional; conditions: U-87MG ATCC
U-87 MG [15] = experiment: Induction of cell cycle arrest in human U87 cells assessed as increase in number of cells at S phase at 80 uM incubated for 24 hrs by RNase/PI staining based flow cytometry; format: functional; conditions: U-87MG ATCC
U-87 MG [16] = experiment: Inhibition of cell migration in human U87 cells at 80 uM incubated for 48 hrs by scratch assay; format: functional, cell-based; conditions: U-87MG ATCC
U-87 MG [17] = experiment: Inhibition of cell invasion in human U87 cells incubated for 48 hrs by crystal violet staining based microscopic analysis; format: functional; conditions: U-87MG ATCC
HUVEC = experiment: Antiangiogenesis activity in human HUVEC cells assessed as inhibition of vascular structure formation at 80 uM incubated for 12 hrs by inverted fluorescence microscopic analysis; format: functional, cell-based
U-87 MG [18] = experiment: Antiangiogenesis activity in human U87 cells assessed as inhibition of neovascularization at 80 uM incubated for 12 hrs by inverted fluorescence microscopic analysis; format: functional, cell-based; conditions: U-87MG ATCC
U-87 MG [19] = experiment: Antitumor activity in human U87 cells assessed as downregulation of […] expression at 80 uM incubated for 24 hrs by Western blotting analysis; format: functional, cell-based; conditions: U-87MG ATCC
U-87 MG [20] = experiment: Antitumor activity in human U87 cells assessed as downregulation of CD133 expression at 80 uM incubated for 24 hrs by Western blotting analysis; format: functional, cell-based; conditions: U-87MG ATCC
U-87 MG [21] = experiment: Antitumor activity in human U87 cells assessed as downregulation of ANGP-2 expression at 80 uM incubated for 24 hrs by Western blotting analysis; format: functional, cell-based; conditions: U-87MG ATCC
U-87 MG [22] = experiment: Antitumor activity in human U87 cells assessed as downregulation of VEGFR2 expression at 80 uM incubated for 24 hrs by Western blotting analysis; format: functional, cell-based; conditions: U-87MG ATCC
U-87 MG [23] = experiment: Antitumor activity in human U87 cells assessed as upregulation of cleaved caspase-3 expression at 80 uM incubated for 24 hrs by Western blotting analysis; format: functional, cell-based; conditions: U-87MG ATCC
U-87 MG [24] = experiment: Antitumor activity against human U87 cells xenografted in Balb/c mouse assessed as reduction in tumor size at 10 mg/kg,ip administered every 3 days measured after 27 days; format: functional, organism-based; conditions: U-87MG ATCC, time 27.0 day
[25] = Toxicity in Balb/c mouse xenografted with human U87 cells assessed as body weight loss at 10 mg/kg,ip administered every 3 days measured after 27 days; format: organism-based; conditions: in vivo, 648 h, time 27 day
[26] = Toxicity in Balb/c mouse xenografted with human U87 cells assessed as histological change in heart at 10 mg/kg,ip administered every 3 days measured after 27 days by hematoxylin and eosin staining based assay; format: organism-based; conditions: in vivo, 648 h, time 27 day
[27] = Toxicity in Balb/c mouse xenografted with human U87 cells assessed as histological change in liver at 10 mg/kg,ip administered every 3 days measured after 27 days by hematoxylin and eosin staining based assay; format: organism-based; conditions: in vivo, 648 h, time 27 day
[28] = Toxicity in Balb/c mouse xenografted with human U87 cells assessed as histological change in spleen at 10 mg/kg,ip administered every 3 days measured after 27 days by hematoxylin and eosin staining based assay; format: organism-based; conditions: in vivo, 648 h, time 27 day
[29] = Toxicity in Balb/c mouse xenografted with human U87 cells assessed as histological change in lung at 10 mg/kg,ip administered every 3 days measured after 27 days by hematoxylin and eosin staining based assay; format: organism-based; conditions: in vivo, 648 h, time 27 day
[30] = Toxicity in Balb/c mouse xenografted with human U87 cells assessed as histological change in kidney at 10 mg/kg,ip administered every 3 days measured after 27 days by hematoxylin and eosin staining based assay; format: organism-based; conditions: in vivo, 648 h, time 27 day
[31] = Toxicity in Balb/c mouse xenografted with human U87 cells assessed as histological change in brain at 10 mg/kg,ip administered every 3 days measured after 27 days by hematoxylin and eosin staining based assay; format: organism-based; conditions: in vivo, 648 h, time 27 day
[32] = Toxicity in Balb/c mouse xenografted with human U87 cells assessed as histological change in heart at 10 mg/kg,ip administered every 3 days measured after 27 days by TUNEL staining based assay; format: organism-based; conditions: in vivo, 648 h, time 27 day
[33] = Toxicity in Balb/c mouse xenografted with human U87 cells assessed as histological change in liver at 10 mg/kg,ip administered every 3 days measured after 27 days by TUNEL staining based assay; format: organism-based; conditions: in vivo, 648 h, time 27 day
[34] = Toxicity in Balb/c mouse xenografted with human U87 cells assessed as histological change in spleen at 10 mg/kg,ip administered every 3 days measured after 27 days by TUNEL staining based assay; format: organism-based; conditions: in vivo, 648 h, time 27 day
[35] = Toxicity in Balb/c mouse xenografted with human U87 cells assessed as histological change in lung at 10 mg/kg,ip administered every 3 days measured after 27 days by TUNEL staining based assay; format: organism-based; conditions: in vivo, 648 h, time 27 day
[36] = Toxicity in Balb/c mouse xenografted with human U87 cells assessed as histological change in kidney at 10 mg/kg,ip administered every 3 days measured after 27 days by TUNEL staining based assay; format: organism-based; conditions: in vivo, 648 h, time 27 day
[37] = Toxicity in Balb/c mouse xenografted with human U87 cells assessed as histological change in brain at 10 mg/kg,ip administered every 3 days measured after 27 days by TUNEL staining based assay; format: organism-based; conditions: in vivo, 648 h, time 27 day

- pIC50 (U-87 MG [1]): 4.18
- pIC50 (MCF7): 2.83
- pIC50 (HCT-116): 4.24
- solubility kinetic at 24 h [2]: 0.03 µM (≈ 8.56 ng/mL)
- Papp A→B at 2 h, 2 µM [3]: 25.7 ×10⁻⁶ cm/s
- Papp B→A at 2 h, 2 µM [4]: 13.3 ×10⁻⁶ cm/s
- efflux ratio at 2 h, 2 µM [5]: 0.52
- half-life [6]: > 2.42 h
- remaining at 1 h [7]: 82.8%
SMILES: CC(C)[C@H]1CC[C@@H](C)C[C@@H]1N1C(=O)c2ccccc2C1=O
- pIC50 (KYSE-150 cell line): 3.01
- Activity (U-87 MG [8]): 90%
- Activity (U-87 MG [9]): Active; Significantly Increased Activity Observed
- Activity (U-87 MG [10]): Active
- Activity (U-87 MG [11]): Active
- Activity (U-87 MG [12]): Active
- Activity (U-87 MG [13]): inactive
- Activity (U-87 MG [14]): inactive
- Activity (U-87 MG [15]): inactive
- inhibition (U-87 MG [16]): Active
- inhibition (U-87 MG [17]): Active
- Activity (HUVEC): Active
- Activity (U-87 MG [18]): Active
- Activity (U-87 MG [19]): Active
- Activity (U-87 MG [20]): Active
- Activity (U-87 MG [21]): Active
- Activity (U-87 MG [22]): Active
- Activity (U-87 MG [23]): Active
- Activity (U-87 MG [24]): Active
- Activity [25]: Non-toxic
- Activity [26]: Non-toxic
- Activity [27]: Non-toxic
- Activity [28]: Non-toxic
- Activity [29]: Non-toxic
- Activity [30]: Non-toxic
- Activity [31]: Non-toxic
- Activity [32]: Non-toxic
- Activity [33]: Non-toxic
- Activity [34]: Non-toxic
- Activity [35]: Non-toxic
- Activity [36]: Non-toxic
- Activity [37]: Non-toxic
